Measured values as given in patent publication US7279300B2, “Protozoan rhomboid proteins” (priority 2002, dated 2007).

Columns and labels:
[1] = test system: Pf rhomboid-1; assay: Pf rhomboid-1 cleavage of GFP-tagged Spitz co-expressed in COS cells (western blot); assay type: cell-based, Plasmodium falciparum; settings: serum-free medium supplemented with inhibitor, substrate Spitz
Method: (§1) Plasmodium rhomboid activity was determined using published methods described in Urban et al Cell (2001) 107(2): 173-82 and WO02/093177. Briefly, Pf rhomboids-1 and -3 were co-expressed with GFP-tagged Spitz under control of a CMV promoter; as follows; COS cells were grown in DMEM medium (supplemented with 10% foetal calf serum), and transfected with FuGENE 6 Transfection Reagent (Roche). Cells were co-transfected in 35 mm culture wells with 25-250 ng of (a) rhomboid construct comprising the Pf-rhomboid-1 or -3 coding sequence inserted into the vector pcDNA 3.1+ (Invitrogen), and (b) substrate construct comprising the GFP-Spitz coding sequence inserted into pcDNA 3.1+ (Invitrogen). Empty plasmid was used to bring the total DNA to 1 μg per well. Construct (b) was transfected into COS cells in the absence of construct (a) as a control for endogenous cleavage of the substrate. 24-30 hours post-transfection, the medium was replaced with serum-free medium; this was harvested 24 hours later and cells were lysed in SDS-sample buffer. For some experiments, the serum-free medium was supplemented with the metalloprotease inhibitor batimastat (British Biotech) or ilomostat (Calbiochem) to minimize endogenous substrate cleavage in the assay. For inhibitor assays, a test compound may be included in the serum-free medium. […]

[2] = test system: Pf rhomboid-3; assay: Pf rhomboid-3 cleavage of GFP-tagged Spitz co-expressed in COS cells (western blot); assay type: cell-based, Plasmodium falciparum; settings: serum-free medium supplemented with inhibitor, substrate Spitz
Method: as §1

CNC(=O)[C@H](Cc1ccccc1)NC(=O)[C@H](CC(C)C)[C@H](CSc1cccs1)C(=O)NO [batimastat]
inhibition of Pf rhomboid-1 cleavage of Spitz [1]: not inhibited | inhibition of Pf rhomboid-3 cleavage of Spitz [2]: not inhibited
